Assay results taken from US12295936B2, “Immunomodulating urea azalides” (Zoetis Services LLC, priority 2020, dated 2025).
Like-named read-outs stand apart in the source and are kept apart here.

What was measured:
TNF-α = test: LPS-stimulated whole bovine blood assay, MSD cytokine detection; assay type: cell-based; details: Bos taurus, read-out: TNF-α (IC50 μM)
[1] = tested on: BRD pathogens, M. haemolytica and P. multocida; test: MIC screening panel of BRD pathogens (antibacterial / non-antibacterial)
IL-1β = test: LPS-stimulated whole bovine blood assay, MSD cytokine detection; assay type: cell-based; details: overstimulation of IL-1β, LPS-stimulated bovine whole blood
IL-6 = test: as above; assay type: cell-based; details: Bos taurus, read-out: IL-6 (IC50 μM)
Text: In order to correlate RNA sequencing data to cytokine changes the whole blood assay was utilized. […] The enhancement result represents an overall stimulation of cytokine levels due to cellular stress or potential toxicity with increasing concentrations of the compound, representing a typical bell shape response curve for immunomodulatory activity.

[2] = LPS-stimulated bovine whole blood
[3] = read-out: antibacterial / non-antibacterial (MIC for the BRD pathogens)
[4] = read-out: MIC ≤64 μg/mL for at least one of the bacterial strains (flag * at Ex #)

| SMILES | IC50 (TNF-α; [2]) | MIC [1, 3] | IL-1β OS of LPS (IL-1β) | IC50 (IL-6; [2]) | MIC [1, 4] | IC50 (TNF-α) | IC50 (IL-6) |
| --- | --- | --- | --- | --- | --- | --- | --- |
| CCCNC[C@]1(O)[C@H](C)O[C@@H](O[C@H]2[C@H](C)[C@@H](O[C@@H]3O[C@H](C)C[C@H](N(Cc4ccccc4)C(=O)N(C)c4ccccc4)[C@H]3O)[C@](C)(O)C[C@@H](C)CN[C@H](C)[C@@H](O)[C@](C)(O)[C@@H](CC)OC(=O)[C@@H]2C)C[C@@]1(C)OC [Example H-65, 1-benzyl-1-((2S,3R,4S,6R)-2-(((2R,3S,4R,5R,8R,10R,11R,12S,13S,14R)-2-ethyl-3,4,10-trihydroxy-13-(((2R,4R,5S,6S)-5-hydroxy-4-methoxy-4,6-dimethyl-5-((propylamino)methyl)tetrahydro-2H-pyran-2-yl)oxy)-3,5,8,10,12,14-hexamethyl-15-oxo-1-oxa-6-azacyclopentadecan-11-yl)oxy)-3-hydroxy-6-methyltetrahydro-2H-pyran-4-yl)-3-methyl-3-phenylurea] | 9 µM | > 64 mg/L | 2 µM | 6 µM |  |  |  |
| CC[C@H]1OC(=O)[C@H](C)[C@@H](O[C@H]2C[C@@](C)(OC)[C@](O)(CN3CCC(F)(F)CC3)[C@H](C)O2)[C@H](C)[C@@H](O[C@@H]2O[C@H](C)C[C@H](N(C)C(=O)N(C)c3ccccc3)[C@H]2O)[C@](C)(O)C[C@@H](C)CN[C@H](C)[C@@H](O)[C@]1(C)O [Example J-17, 1-((2S,3R,4S,6R)-2-(((2R,3S,4R,5R,8R,10R,11R,12S,13S,14R)-13-(((2R,4R,5S,6S)-5-((4,4-difluoropiperidin-1-yl)methyl)-5-hydroxy-4-methoxy-4,6-dimethyltetrahydro-2H-pyran-2-yl)oxy)-2-ethyl-3,4,10-trihydroxy-3,5,8,10,12,14-hexamethyl-15-oxo-1-oxa-6-azacyclopentadecan-11-yl)oxy)-3-hydroxy-6-methyltetrahydro-2H-pyran-4-yl)-1,3-dimethyl-3-phenylurea] | 14 µM |  | 40 µM | 25 µM | < 64 mg/L |  |  |
| CC[C@H]1OC(=O)[C@H](C)[C@@H](O[C@H]2C[C@@](C)(OC)[C@](O)(CN3CCCCC3)[C@H](C)O2)[C@H](C)[C@@H](O[C@@H]2O[C@H](C)C[C@H](N(C)C(=O)N(C)c3ccccc3)[C@H]2O)[C@](C)(O)C[C@@H](C)CN[C@H](C)[C@@H](O)[C@]1(C)O [Example J-18, 1-((2S,3R,4S,6R)-2-(((2R,3S,4R,5R,8R,10R,11R,12S,13S,14R)-2-ethyl-3,4,10-trihydroxy-13-(((2R,4R,5S,6S)-5-hydroxy-4-methoxy-4,6-dimethyl-5-(piperidin-1-ylmethyl)tetrahydro-2H-pyran-2-yl)oxy)-3,5,8,10,12,14-hexamethyl-15-oxo-1-oxa-6-azacyclopentadecan-11-yl)oxy)-3-hydroxy-6-methyltetrahydro-2H-pyran-4-yl)-1,3-dimethyl-3-phenylurea] |  |  | >250 µM |  | < 64 mg/L | 16 µM | 17 µM |
| CCCNC[C@]1(O)[C@H](C)O[C@@H](O[C@H]2[C@H](C)[C@@H](O[C@@H]3O[C@H](C)C[C@H](N(C)C(=O)Nc4cccc(Cl)c4)[C@H]3O)[C@](C)(O)C[C@@H](C)CN[C@H](C)[C@@H](O)[C@](C)(O)[C@@H](CC)OC(=O)[C@@H]2C)C[C@@]1(C)OC [Example H-88, 3-(3-chlorophenyl)-1-((2S,3R,4S,6R)-2-(((2R,3S,4R,5R,8R,10R,11R,12S,13S,14R)-2-ethyl-3,4,10-trihydroxy-13-(((2R,4R,5S,6S)-5-hydroxy-4-methoxy-4,6-dimethyl-5-((propylamino)methyl)tetrahydro-2H-pyran-2-yl)oxy)-3,5,8,10,12,14-hexamethyl-15-oxo-1-oxa-6-azacyclopentadecan-11-yl)oxy)-3-hydroxy-6-methyltetrahydro-2H-pyran-4-yl)-1-methylurea] | 56 µM | > 64 mg/L | 13 µM | 92 µM |  |  |  |
| CCCNC[C@]1(O)[C@H](C)O[C@@H](O[C@H]2[C@H](C)[C@@H](O[C@@H]3O[C@H](C)C[C@H](N(C)C(=O)N(C)c4ccncc4)[C@H]3O)[C@](C)(O)C[C@@H](C)CN[C@H](C)[C@@H](O)[C@](C)(O)[C@@H](CC)OC(=O)[C@@H]2C)C[C@@]1(C)OC [Example H-59, 1-((2S,3R,4S,6R)-2-(((2R,3S,4R,5R,8R,10R,11R,12S,13S,14R)-2-ethyl-3,4,10-trihydroxy-13-(((2R,4R,5S,6S)-5-hydroxy-4-methoxy-4,6-dimethyl-5-((propylamino)methyl)tetrahydro-2H-pyran-2-yl)oxy)-3,5,8,10,12,14-hexamethyl-15-oxo-1-oxa-6-azacyclopentadecan-11-yl)oxy)-3-hydroxy-6-methyltetrahydro-2H-pyran-4-yl)-1,3-dimethyl-3-(pyridin-4-yl)urea] | 9 µM | > 64 mg/L | 16 µM | 30 µM |  |  |  |
| CCCNC[C@]1(O)[C@H](C)O[C@@H](O[C@H]2[C@H](C)[C@@H](O[C@@H]3O[C@H](C)C[C@H](N(C)C(=O)N(C)c4ccc(C(F)(F)F)cc4)[C@H]3O)[C@](C)(O)C[C@@H](C)CN(CCC)[C@H](C)[C@@H](O)[C@](C)(O)[C@@H](CC)OC(=O)[C@@H]2C)C[C@@]1(C)OC [Example H-103, 1-((2S,3R,4S,6R)-2-(((2R,3S,4R,5R,8R,10R,11R,12S,13S,14R)-2-ethyl-3,4,10-trihydroxy-13-(((2R,4R,5S,6S)-5-hydroxy-4-methoxy-4,6-dimethyl-5-((propylamino)methyl)tetrahydro-2H-pyran-2-yl)oxy)-3,5,8,10,12,14-hexamethyl-15-oxo-6-propyl-1-oxa-6-azacyclopentadecan-11-yl)oxy)-3-hydroxy-6-methyltetrahydro-2H-pyran-4-yl)-1,3-dimethyl-3-(4-(trifluoromethyl)phenyl)urea] | 5 µM | > 64 mg/L | 3 µM | 4 µM |  |  |  |
| CC[C@H]1OC(=O)[C@H](C)[C@@H](O[C@H]2C[C@@](C)(OC)[C@](O)(CNc3ccccc3)[C@H](C)O2)[C@H](C)[C@@H](O[C@@H]2O[C@H](C)C[C@H](N(C)C(=O)N(C)c3ccccc3)[C@H]2O)[C@](C)(O)C[C@@H](C)CN[C@H](C)[C@@H](O)[C@]1(C)O [Example H-32, 1-((2S,3R,4S,6R)-2-(((2R,3S,4R,5R,8R,10R,11R,12S,13S,14R)-2-ethyl-3,4,10-trihydroxy-13-(((2R,4R,5S,6S)-5-hydroxy-4-methoxy-4,6-dimethyl-5-((phenylamino)methyl)tetrahydro-2H-pyran-2-yl)oxy)-3,5,8,10,12,14-hexamethyl-15-oxo-1-oxa-6-azacyclopentadecan-11-yl)oxy)-3-hydroxy-6-methyltetrahydro-2H-pyran-4-yl)-1,3-dimethyl-3-phenylurea] | 11 µM | > 64 mg/L | 44 µM | 8 µM |  |  |  |
| CC[C@H]1OC(=O)[C@H](C)[C@@H](O[C@H]2C[C@@](C)(OC)[C@](O)(CNCCCn3ccnc3)[C@H](C)O2)[C@H](C)[C@@H](O[C@@H]2O[C@H](C)C[C@H](N(C)C(=O)N(C)c3ccccc3)[C@H]2O)[C@](C)(O)C[C@@H](C)CN[C@H](C)[C@@H](O)[C@]1(C)O [Example H-25, 1-((2S,3R,4S,6R)-2-(((2R,3S,4R,5R,8R,10R,11R,12S,13S,14R)-13-(((2R,4R,5S,6S)-5-(((3-(1H-imidazol-1-yl)propyl)amino)methyl)-5-hydroxy-4-methoxy-4,6-dimethyltetrahydro-2H-pyran-2-yl)oxy)-2-ethyl-3,4,10-trihydroxy-3,5,8,10,12,14-hexamethyl-15-oxo-1-oxa-6-azacyclopentadecan-11-yl)oxy)-3-hydroxy-6-methyltetrahydro-2H-pyran-4-yl)-1,3-dimethyl-3-phenylurea] | 19 µM | > 64 mg/L | 16 µM | 22 µM |  |  |  |
| CC[C@H]1OC(=O)[C@H](C)[C@@H](O[C@H]2C[C@@](C)(OC)[C@](O)(CCl)[C@H](C)O2)[C@H](C)[C@@H](O[C@@H]2O[C@H](C)C[C@H](N(C)C(=O)N(C)c3ccccc3)[C@H]2O)[C@](C)(O)C[C@@H](C)CN[C@H](C)[C@@H](O)[C@]1(C)O [Example E-2, 1-((2S,3R,4S,6R)-2-(((2R,3S,4R,5R,8R,10R,11R,12S,13S,14R)-13-(((2R,4R,5S,6S)-5-(chloromethyl)-5-hydroxy-4-methoxy-4,6-dimethyltetrahydro-2H-pyran-2-yl)oxy)-2-ethyl-3,4,10-trihydroxy-3,5,8,10,12,14-hexamethyl-15-oxo-1-oxa-6-azacyclopentadecan-11-yl)oxy)-3-hydroxy-6-methyltetrahydro-2H-pyran-4-yl)-1,3-dimethyl-3-phenylurea] | 40 µM | > 64 mg/L | 40 µM | 35 µM |  |  |  |
| CC[C@H]1OC(=O)[C@H](C)[C@@H](O[C@H]2C[C@@](C)(OC)[C@](O)(CN3CCCC3)[C@H](C)O2)[C@H](C)[C@@H](O[C@@H]2O[C@H](C)C[C@H](N(C)C(=O)N(C)c3ccccc3)[C@H]2O)[C@](C)(O)C[C@@H](C)CN[C@H](C)[C@@H](O)[C@]1(C)O [Example J-12, 1-((2S,3R,4S,6R)-2-(((2R,3S,4R,5R,8R,10R,11R,12S,13S,14R)-2-ethyl-3,4,10-trihydroxy-13-(((2R,4R,5S,6S)-5-hydroxy-4-methoxy-4,6-dimethyl-5-(pyrrolidin-1-ylmethyl)tetrahydro-2H-pyran-2-yl)oxy)-3,5,8,10,12,14-hexamethyl-15-oxo-1-oxa-6-azacyclopentadecan-11-yl)oxy)-3-hydroxy-6-methyltetrahydro-2H-pyran-4-yl)-1,3-dimethyl-3-phenylurea] | 34 µM | > 64 mg/L | 22 µM | 126 µM |  |  |  |
